In article PMC3669539, “Explant cultures of Rpe65^−/− mouse retina: a model to investigate cone opsin trafficking” (Molecular Vision, 2013):

Biological target: T1, mouse UV cone opsin (Mus musculus, UniProt P51491)
T1 construct: gene Opn1sw; pMT-2 vector, COS-1 cell membranes; transducin from bovine retina as read-out
T1 sequence (P51491 1-346): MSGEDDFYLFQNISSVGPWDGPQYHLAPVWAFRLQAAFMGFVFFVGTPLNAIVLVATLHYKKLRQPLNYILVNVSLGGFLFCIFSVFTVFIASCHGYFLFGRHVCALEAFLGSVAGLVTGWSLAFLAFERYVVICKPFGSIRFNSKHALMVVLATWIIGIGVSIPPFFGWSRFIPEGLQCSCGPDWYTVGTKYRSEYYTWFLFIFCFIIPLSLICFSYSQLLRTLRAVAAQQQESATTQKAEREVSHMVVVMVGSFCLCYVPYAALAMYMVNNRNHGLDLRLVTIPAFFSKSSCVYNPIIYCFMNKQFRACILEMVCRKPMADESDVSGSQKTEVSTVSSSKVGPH
Test: transducin activation, radioactive GTPgammaS35 filter-binding assay
Assay type: biochemical
Conditions: agonist, 20 or 200 µM; COS-1 membranes, bovine transducin 2.5 µM, 3 µM GTPgammaS, pH 6.4, 50 mM MgCl2, dim red light

With `CC1=C(/C=C/C(C)=C/C=C/C(C)=C/C(=O)O)C(C)(C)CCC1` [all-trans retinoic acid] the “transducin activation, radioactive GTPgammaS35 filter-binding assay” value was “RA, on the other hand, did increase mouse UV-opsin activity significantly”.
